Like-named read-outs stand apart in the source and are kept apart here. Where a SMILES comes first, the peptide text is derived from it. Where no end group is shown, it is not given here. [ ]: non-standard residue; d: D form. The star is where a group is joined. Nva = CCC[C@H](N)C(=O)O; Ms = CS(=O)(=O)*; CH2Cl = ClC*
Columns and labels:
[1] = molecular target: T1, plasmin (Homo sapiens, UniProt P00747); experiment: Amidolytic activity of plasmin, substrate S-2251; assay type: biochemical; settings: Ki calculated from IC50 by Cheng-Prusoff; triplicate; read-out: Ki ± SD Plasmin S-2251
T1 construct: converts the pro-enzyme plasminogen into its active form plasmin; purchased Chromogenix (Milano, Italy)
T1 sequence (P00747 581-810 limits assumed): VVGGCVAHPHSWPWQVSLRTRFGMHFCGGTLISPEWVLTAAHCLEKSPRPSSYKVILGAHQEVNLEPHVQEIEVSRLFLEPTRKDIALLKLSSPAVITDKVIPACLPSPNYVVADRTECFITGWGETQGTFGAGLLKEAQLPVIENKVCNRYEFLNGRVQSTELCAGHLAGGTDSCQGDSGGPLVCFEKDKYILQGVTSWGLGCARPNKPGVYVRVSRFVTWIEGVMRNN
T1 sequence (P00747 97-580 partner limits assumed): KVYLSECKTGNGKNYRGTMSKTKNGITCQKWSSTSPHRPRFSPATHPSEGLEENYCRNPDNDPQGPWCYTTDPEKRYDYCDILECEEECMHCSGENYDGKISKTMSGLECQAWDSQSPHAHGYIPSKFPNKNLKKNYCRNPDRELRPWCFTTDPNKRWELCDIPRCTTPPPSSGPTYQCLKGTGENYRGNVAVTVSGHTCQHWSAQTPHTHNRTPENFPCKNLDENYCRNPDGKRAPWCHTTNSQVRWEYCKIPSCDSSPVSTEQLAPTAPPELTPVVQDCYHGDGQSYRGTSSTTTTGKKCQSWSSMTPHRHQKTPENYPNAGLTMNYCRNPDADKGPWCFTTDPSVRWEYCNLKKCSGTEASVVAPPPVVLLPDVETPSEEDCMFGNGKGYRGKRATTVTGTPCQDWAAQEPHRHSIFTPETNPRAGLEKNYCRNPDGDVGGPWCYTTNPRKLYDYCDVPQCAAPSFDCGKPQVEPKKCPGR
Description: (§1) Determination of amidolytic activity was performed as previously described (Okada et al. [1988]). The detailed description of the method is given below. The buffer and the enzyme solution included: • tris buffer—0.6 ml (pH 8.8), […]
(§2) synthetic substrate: S-2238 (0.2 ml, 0.75 mM); • (c) tris buffer—0.5 ml (pH 7.4), enzyme: plasmin (0.4 U/ml), synthetic substrate: S-2251 (0.2 ml, 3 mM); • (d) borane buffer—0.5 ml (pH 7.5), Buffer and 0.1 ml of enzyme solution was added to 0.2 ml of examined compound dissolved in 0.15 M NaCl (1–17) (as control 0.15 M NaCl). The mixture was incubated for 3 min at 37 °C, then the synthetic substrate was added. After 20 min of incubation, the reaction was stopped by adding 0.1 ml of 50 % acetic acid, and the absorbance of the released p-nitroaniline was measured at 405 nm (Spekol 1300, AnalyticJena). Every value represents the average of the triplicate determination. IC50 value was considered as the concentration of the inhibitor, which decreased the absorbance at 405 nm by 50 %, compared with the absorbance measured under the same conditions without the inhibitor. Ki was calculated from IC50 based on Cheng–Prusoff equation (Cheng and Prusoff [1973]).

[2] = molecular target: thrombin (Bos taurus, UniProt P00735); experiment: Amidolytic activity of thrombin, substrate S-2238; assay type: biochemical; settings: Ki calculated from IC50 by Cheng-Prusoff, n.i. = no effect at maximum concentration 20 mM, read-out: Ki ± SD Thrombin
Description: as §1
as §2, with “synthetic substrate: S-2444 (0.1 ml, 3 mM); • (b) tris buffer—0.5 ml (pH 8.4), enzyme: thrombin (1 U/ml), synthetic substrate:” for “synthetic substrate:”, “(pH 7.4), Buffer and” for “(pH 7.4), enzyme: plasmin (0.4 U/ml), synthetic substrate: S-2251 (0.2 ml, 3 mM); • (d) borane buffer—0.5 ml (pH 7.5), Buffer and”

[3] = tested on: MDA-MB-231 cells; settings: 24 h
[4] = tested on: DLD cells; settings: 24 h
[5] = molecular target: T2, urokinase (Homo sapiens, UniProt P00749); experiment: Amidolytic activity of urokinase, substrate S-2444; assay type: biochemical; settings: Ki calculated from IC50 by Cheng-Prusoff; triplicate; n.i. = no effect at maximum concentration 20 mM; read-out: Ki ± SD Urokinase S-2444
Description: Determination of amidolytic activity was performed as previously described (Okada et al. [1988]). The detailed description of the method is given below. The buffer and the enzyme solution included: • tris buffer—0.6 ml (pH 8.8),
enzyme: urokinase (50 U/ml),
synthetic substrate: S-2444 (0.1 ml, 3 mM); • (b) tris buffer—0.5 ml (pH 8.4),
as §2, with “Buffer” for “synthetic substrate: S-2238 (0.2 ml, 0.75 mM); • (c) tris buffer—0.5 ml (pH 7.4), enzyme: plasmin (0.4 U/ml), synthetic substrate: S-2251 (0.2 ml, 3 mM); • (d) borane buffer—0.5 ml (pH 7.5), Buffer”

[6] = molecular target: T2, urokinase; experiment: Urokinase inhibition, literature or earlier data; assay type: biochemical; settings: author's unpublished data, corresponding to earlier IC50 values
[7] = molecular target: T2, urokinase; settings: cited from earlier work
[8] = ref Markowska et al. [2008], read-out: IC50 urokinase

Row | Molecule | Ki [1] [µM] | Ki [2] [µM] | IC50 [3] [µM] | IC50 [4] [µM] | Ki [5] [µM] | other results
1 | C[C@H](NC(=O)[C@@H](CO)NS(=O)(=O)Cc1ccccc1)C(=O)N[C@@H](CCCNC(=N)N)C(=O)NCCCCCN [Compound 1, PhCH2SO2-D-Ser-Ala-Arg-NH-(CH2)5-NH2] | 2 ± 0.16 | > 20000 | 480 | 460 | > 20000 | 
2 | CC(C)c1cc(C(C)C)c(S(=O)(=O)N[C@H](CO)C(=O)N[C@@H](C)C(=O)N[C@@H](CCCNC(=N)N)C(=O)NCCCCCN)c(C(C)C)c1 [Compound 2, 2,4,6-TriiPrPhSO2-D-Ser-Ala-Arg-NH-(CH2)5-NH2] | 90.9 ± 7.27 | > 20000 | 480 | 390 | > 20000 | 
3 | C[C@H](NC(=O)[C@@H](CO)NS(C)(=O)=O)C(=O)N[C@@H](CCCNC(=N)N)C(=O)NCCCCCN [Compound 3, CH3PhSO2-D-Ser-Ala-Arg-NH-(CH2)5-NH2] |  |  | 570 | 390 |  | 
4 | N=C(N)NCCC[C@H](NC(=O)CNC(=O)[C@@H](CO)NS(=O)(=O)Cc1ccccc1)C(=O)NCCCCCN [Compound 4, PhCH2SO2-D-Ser-Gly-Arg-NH-(CH2)5-NH2] | 58.2 ± 4.65 | > 20000 | 580 | 320 | > 20000 | 
5 | CC(C)c1cc(C(C)C)c(S(=O)(=O)N[C@H](CO)C(=O)NCC(=O)N[C@@H](CCCNC(=N)N)C(=O)NCCCCCN)c(C(C)C)c1 [Compound 5, 2,4,6-TriiPrPhSO2-D-Ser-Gly-Arg-NH-(CH2)5-NH2] | 56.4 ± 4.51 | > 20000 | 510 | 150 | 44.6 ± 3.57 | 
6 | C[C@H](NC(=O)[C@H](N)CO)C(=O)N[C@@H](CCCNC(=N)N)C(=O)O [H-D-Ser-Ala-Arg-OH] (H-[dS]-Ala-Arg-OH) |  |  |  |  |  | Ki [6]: 180 µM; IC50 [7, 8]: 2000 µM
7 | N=C(N)NCCC[C@H](NC(=O)CNC(=O)[C@H](N)CO)C(=O)O [H-D-Ser-Gly-Arg-OH] (H-[dS]-Gly-Arg-OH) |  |  |  |  |  | Ki [6]: 90 µM; IC50 [7, 8]: 1000 µM
8 | Glu-Gly-Arg-CH2Cl |  |  |  |  |  | Ki ([7]; ref Lijnen et al. [1987]): 5 µM
9 | H-D-Ser-Ala-Arg-NH-(CH2)5-NH2 |  |  |  |  |  | Ki ([7]; ref Markowska et al. [2010]): 6.3 µM
10 | H-D-Ser-NVa-Arg-OH |  |  |  |  |  | Ki ([7]; ref Markowska et al. [2011]): 0.85 µM
11 | phenethylsulfonyl-D-Ser-Ala-Arg-H |  |  |  |  |  | IC50 ([7]; ref Tamura et al. [2000], read-out: IC50 uPA): 0.0031 µM
12 | α-tolyl-SO2-D-Ser-Ala-Arg-OH |  |  |  |  |  | Ki ([7]; ref Markowska et al. [2010]): 24 µM

Now from value to molecule, other results behind:

Row | Ki [1] [µM] | Ki [2] [µM] | IC50 [3] [µM] | IC50 [4] [µM] | Ki [5] [µM] | Molecule | other results
13 |  |  | 450 | 260 |  | CS(=O)(=O)N[C@H](CO)C(=O)NCC(=O)N[C@@H](CCCNC(=N)N)C(=O)NCCCCCN [Compound 6, CH3PhSO2-D-Ser-Gly-Arg-NH-(CH2)5-NH2] | 
14 | 112 ± 8.95 | > 20000 | 680 | 340 | > 20000 | CCC[C@H](NC(=O)[C@@H](CO)NS(=O)(=O)Cc1ccccc1)C(=O)N[C@@H](CCCNC(=N)N)C(=O)NCCCCCN [Compound 7, PhCH2SO2-D-Ser-NVa-Arg-NH-(CH2)5-NH2] | 
15 | 52.7 ± 4.22 | > 20000 | 660 | 330 | > 20000 | CCC[C@H](NC(=O)[C@@H](CO)NS(=O)(=O)c1c(C(C)C)cc(C(C)C)cc1C(C)C)C(=O)N[C@@H](CCCNC(=N)N)C(=O)NCCCCCN [Compound 8, 2,4,6-TriiPrPhSO2-D-Ser-NVa-Arg-NH-(CH2)5-NH2] | 
16 |  |  | 620 | 50 |  | CCC[C@H](NC(=O)[C@@H](CO)NS(C)(=O)=O)C(=O)N[C@@H](CCCNC(=N)N)C(=O)NCCCCCN [Compound 9, CH3PhSO2-D-Ser-NVa-Arg-NH-(CH2)5-NH2] | 
17 | 103 ± 8.22 | 0.97 ± 0.08 | 640 | 5 | 5.4 ± 0.43 | N=C(N)NCCC[C@H](NC(=O)CNC(=O)[C@@H](CO)NS(=O)(=O)Cc1ccccc1)C(=O)O [Compound 10, PhCH2SO2-D-Ser-Gly-Arg-OH] | 
18 | 89.1 ± 7.13 | > 20000 | 570 | 110 | 15.8 ± 1.27 | CC(C)c1cc(C(C)C)c(S(=O)(=O)N[C@H](CO)C(=O)NCC(=O)N[C@@H](CCCNC(=N)N)C(=O)O)c(C(C)C)c1 [Compound 11, 2,4,6-TriiPrPhSO2-D-Ser-Gly-Arg-OH] | 
19 | 13.6 ± 1.09 | 0.82 ± 0.06 | 650 | 180 | > 20000 | CCC[C@H](NC(=O)[C@@H](CO)NS(=O)(=O)Cc1ccccc1)C(=O)N[C@@H](CCCNC(=N)N)C(=O)O [Compound 13, PhCH2SO2-D-Ser-NVa-Arg-OH] | 
20 |  |  | 590 | 220 |  | CCC[C@H](NC(=O)[C@@H](CO)NS(=O)(=O)c1c(C(C)C)cc(C(C)C)cc1C(C)C)C(=O)N[C@@H](CCCNC(=N)N)C(=O)O [Compound 14, 2,4,6-TriiPrPhSO2-D-Ser-NVa-Arg-OH] | 
21 | 167 ± 13.4 | > 20000 | 650 | 270 | > 20000 | CCC[C@H](NC(=O)[C@@H](CO)NS(C)(=O)=O)C(=O)N[C@@H](CCCNC(=N)N)C(=O)O [Compound 15, CH3PhSO2-D-Ser-NVa-Arg-OH] (Ms-[dS]-[Nva]-Arg-OH; N-terminus and C-terminus assumed) | 
22 | 137 ± 11 | > 20000 | 490 | 260 | > 20000 | CCC[C@H](NC(=O)[C@H](N)CO)C(=O)N[C@@H](CCCNC(=N)N)C(=O)NCCCCCN [Compound 16, H-D-Ser-NVa-Arg-NH-(CH2)5-NH2] | 
23 | 139 ± 11.1 | > 20000 | 510 | 250 | > 20000 | N=C(N)NCCC[C@H](NC(=O)CNC(=O)[C@H](N)CO)C(=O)NCCCCCN [Compound 17, H-D-Ser-Gly-Arg-NH-(CH2)5-NH2] | 

From article PMC3726930, “Synthesis and Biological Activity of N-Sulfonyltripeptides with C-Terminal Arginine as Potential Serine Proteases Inhibitors” (International Journal of Peptide Research and Therapeutics, 2012)
